The record followed here is US20240408170A1, “COMPOSITION FOR DECOMPOSITION OF TRYPSIN OR TMPRSS2” (Riken, priority 2021, published 2024).

In one experiment the test system is FITC-casein substrate. The experiment in a line: Protease activity assay (cleavage of FITC-labeled casein). It counts as biochemical. Here is the method:
The protease activity of the P. clara culture solution, the P. clara culture solution supernatant, the recombinant 00502 protein, and the recombinant 005009 protein were measured using Pierce™ Fluorescent Protease Assay Kit (#23266, Thermo Fisher Scientific K.K.) according to the manufacturer's protocol.
Using PerkinElmer 2030 Multilabel Reader equipped with an excitation filter and a fluorescence filter of fluorescein (485/538 nm), an increase in total fluorescence due to digestion of the FITC-casein substrate to smaller fluorescein-labeled fragments was detected. The protease activity was measured as a change in relative fluorescence units (RFUs).

In experiment [1] the target is T1, recombinant mouse PRSS2 (Mus musculus, UniProt P07146).
T1 construct: purchased Sino Biological, Inc. 50383-M08H
T1 sequence (P07146 24-246): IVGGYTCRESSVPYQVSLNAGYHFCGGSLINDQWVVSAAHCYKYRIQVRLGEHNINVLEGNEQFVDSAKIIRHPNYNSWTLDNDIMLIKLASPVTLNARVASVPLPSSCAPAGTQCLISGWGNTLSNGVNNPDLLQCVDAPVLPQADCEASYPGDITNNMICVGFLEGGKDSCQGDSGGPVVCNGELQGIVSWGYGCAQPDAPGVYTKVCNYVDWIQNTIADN
The experiment in a line: Binding of Alexa Fluor 488-labeled rmPRSS2 to the surface of bacteria (confocal microscope). As for the experimental part:
Recombinant mouse PRSS2 was labeled with Alexa Fluor™ 488 using an Alexa Fluor™ 488 Antibody Labeling Kit (Δ20181, Thermo Fisher Scientific K.K.), and was pretreated with an AEBSF inhibitor (150 μg/mL rmPRSS2 with 20 mM AEBSF).
Mouse PRSS2 labeled with Alexa Fluor™ 488 was incubated in an anaerobic chamber for 20 minutes with bacteria cultured at a final concentration of 5 μg/mL. The mixture was centrifuged, washed once with PBS, and then resuspended in PBS. A Leica TCS SP8 confocal microscope was used for capturing a confocal image.

For another experiment, the target named is T2, trypsin (Mus musculus, UniProt P07146).
T2 construct: the anionic trypsin protease was abundantly present in the cecal contents and the faeces; from tissue; host or cells: faeces and cecal contents of germ-free / gnotobiotic mice
T2 sequence (P07146 24-246): T1 sequence (P07146 24-246)
Kind of experiment: Substrate specificity: ex vivo incubation of GF mouse cecal contents with P. clara, peptidome analysis by LC-MS. The format is biochemical. The conditions noted are these: 7614 peptides derived from 276 proteins, cecal contents of GF mice. As for the experimental part: An acetonitrile (ACN) containing 0.1% trifluoroacetic acid (TFA) was added to the cecal contents and dried with a centrifugal evaporator. Acetone was added to the dried sample, and a low-molecular-weight compound that was soluble in lipids was extracted with a water bath type sonicator. Thereafter, centrifugation was performed at 15,000×g for 15 minutes at 4° C.
After removing the supernatant, 70% ACN-HCl was added to the precipitate, and the peptides were redissolved in a water bath type sonicator. Thereafter, centrifugation was performed at 15,000×g for 15 minutes at 4° C. Subsequently, the supernatant was transferred to a new tube and dried with a centrifugal evaporator. Subsequently, the dried sample was redissolved in 100 mM Tris-HCl containing a protease inhibitor, and then treated with 10 mM dithiothreitol at 50° C. for 30 minutes. Thereafter, alkylation was carried out with 30 mM iodoacetamide for 30 minutes at room temperature in a dark place. Thereafter, acidification was carried out with 0.5% trifluoroacetic acid (final concentration). The acidified sample was desalted with MonoSpin C18 (GL Sciences Inc.). […]
The peptides eluted from the column were analyzed by DDA-MS using Q Exactive HF-X (Thermo Fisher Scientific K.K.). […]

A further experiment concerns the target T3, recombinant human PRSS2 (Homo sapiens, UniProt P07478).
T3 construct: purchased LS-G20167
Kind of experiment: Human trypsin decomposition in vitro by P. clara (western blot). It counts as biochemical. Here is the method: (§1) Mouse faecal samples were suspended and diluted 50-fold with phosphate buffered saline (PBS) to which a protease inhibitor cocktail (Roche) was added. Subsequently, the suspended sample was centrifuged at 15,000×g for 10 minutes at 4° C., and the supernatant was subjected to western blot. Mouse pancreatic tissue was rapidly frozen in liquid nitrogen. Proteins were extracted by TRIzol Reagent (Thermo Fisher Scientific K.K.), and the final protein concentration was adjusted to 4 μg/μL. For SDS-PAGE and blotting, Novex (registered trademark) NuPAGE (registered trademark) SDS-PAGE Gel system (Thermo Fisher Scientific K.K.) and iBlot™ 2 Dry Blotting System (Thermo Fisher Scientific K.K.) were used according to the manufacturer's instructions.
(§2) The bacteria cultured overnight were incubated with recombinant mouse trypsin (final concentration: 1 μg/mL) for 1 hour or with human trypsin (final concentration: 20 μg/mL) for 4 hours. Recombinant trypsin isoforms used were as follows: recombinant mouse PRSS2 (50383-M08H, Sino Biological, Inc.), recombinant human PRSS1 (LS-G135640), recombinant human PRSS2 (LS-G20167), and recombinant human PRSS3 (His-tag) (NBP2-52220).
On the technique in general: Immunoblotting shows a protein as a band on a membrane.

The next experiment has as its target T4, recombinant human PRSS1 (Homo sapiens, UniProt P07477).
T4 construct: purchased LS-G135640
Described as above. It counts as biochemical. Here is the method:
as §1, §2

Experiment [2] deals with T1, recombinant mouse PRSS2. Kind of experiment: Trypsin decomposition in vitro by bacteria (western blot). The format is biochemical. Here is the method:
as §1, §2
In some experiments, recombinant mouse PRSS2 was first treated with one of the following trypsin inhibitors for 30 minutes before incubation with a P. clara culture solution. AEBSF (Sigma-Aldrich, final concentration: 2 mM), Leupeptin (Sigma-Aldrich, final concentration: 100 μM), and TLCK (Abcam plc., final concentration: 100 μM).
In some experiments, P. clara was cultured overnight in the presence of Tunicamycin (Sigma-Aldrich, final concentration: 10 μg/mL), 2-Fluoro-L-fucose (Cayman Chemical Company, final concentration: 250 μM), or the corresponding DMSO control, before incubation with recombinant mouse PRSS2.
In the experiment of evaluating the effect of Ca^2+, P. clara was cultured in a low Ca^2+ mGAM medium supplemented with or without 1 mM of Ca^2+, before incubation with recombinant mouse PRSS2. In the experiment in which the supernatant of P. clara was used, P. clara cultured overnight was filtered through a sterilization filter unit formed using a PVDF film having a pore size of 0.22 μm.

T3 sequence (P07478 24-247): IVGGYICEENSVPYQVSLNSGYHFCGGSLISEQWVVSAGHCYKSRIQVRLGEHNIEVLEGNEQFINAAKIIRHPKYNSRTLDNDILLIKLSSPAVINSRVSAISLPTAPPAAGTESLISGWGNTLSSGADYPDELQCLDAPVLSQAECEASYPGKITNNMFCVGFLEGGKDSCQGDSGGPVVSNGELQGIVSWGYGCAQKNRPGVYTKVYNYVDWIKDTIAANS

For “Paraprevotella clara [P. clara (strain ID: 1C4)]”, the “protease activity (change in relative fluorescence units)” value in the experiment with FITC-casein substrate was “no proteolytic activity was detected”. Further, the “binding of rmPRSS2 to the surface of bacteria” value on recombinant mouse PRSS2 [1] is recorded as “accumulate on the surface”. Also, the “substrate specificity: proteins with increase in peptide concentration over time” value on trypsin was “trypsin was only one protein that exhibited a pattern of a clear increase in peptide concentration over time”. Besides, the “decomposition of human trypsin PRSS2 (western blot)” value on recombinant human PRSS2 is on record as “can promote the reduction”. Also, at recombinant human PRSS1, the “decomposition of human trypsin PRSS1 (western blot)” value is “can promote the reduction”. Besides, on recombinant mouse PRSS2 [2], the “reaction rate of trypsin decomposition by P. clara” value is reported as “gradually occurs stoichiometrically”. Also, the “dependence of P. clara-mediated trypsin decomposition on divalent cations” value on recombinant mouse PRSS2 [2] (Ca2+) is “occurred only in the presence of a sufficient amount of divalent cations”. At recombinant mouse PRSS2 [2] (bacteria or culture supernatant incubated with recombinant mouse trypsin), the “decomposition of rmPRSS2 (western blot)” value is “reduced trypsin”.
